Reference: patent EP0067666A1, “Salts of antimicrobial naphthyridine and quinoline compounds and their production” (priority 1981, dated 1982)
Converted amounts (≈) assume the structure as drawn. Like-named read-outs stand apart in the source and are kept apart here. Marks after values point to notes of the source that are not given here.

Tests used:
Type in all cases: physicochemical
[1] = Solubility screening procedure (concentration and pH of filtrate); settings: for Conc. of CPD B: compound B + equimolar acid; for Conc. of CPD B / Conc. of CPD A: amino acid or base in deionized water, room temperature, filtrate, UV assay; for pH of Solution: pH of the filtrate; for Conc. of CPD A: compound A + equimolar acid
Procedure: (§1) The amount of Compound A or Compound B calculated for selected concentrations was weighed into volumetric flasks. Equimolar quantities of combining acid, amino acid, or base were added either as solutions or in dry form. Deionized water was added to bring the volume to that desired for the preselected concentrations.. All flasks were sonicated for 15 minutes, allowed to stand at room temperature for 30 minutes, then filtered through a fine frit sintered glass funnel. After the pH of the filtrate was taken, suitable dilutions were made into 0.1N HCl for ultraviolet spectrophotometric assay of concentration. Ten fold dilutions of the original filtrates were made into standard I.V. solutions.

[2] = Solubility of lyophilized and crystalline solids; settings: for solubility / Conc. of CPD A mg/ml Lyo.: not necessarily maximum value
[3] = 10x dilution of soluble forms with standard IV solutions (pH, precipitate); settings: for Solution 1 ppt 4 hr / Solution 3 ppt 4 hr / Solution 2 ppt 4 hr / Solution 4 ppt 4 hr: precipitate at 4 hr; for Solution 1 ppt 24 hr / Solution 3 ppt 24 hr / Solution 2 ppt 24 hr / Solution 4 ppt 24 hr: precipitate at 24 hr; for Concen. of Cpd A: undiluted solution used for the 10x dilutions
Procedure: as §1

[4] = concentrated Cpd B solution (154-221 mg/ml) diluted 10x with 5% Dextrose
[5] = concentrated Cpd B solution (154-221 mg/ml) diluted 10x with 5% Dextrose + 0.9% NaCl
[6] = concentrated Cpd B solution (154-221 mg/ml) diluted 10x with Lactated Ringer's Solution
[7] = concentrated Cpd B solution (155-221 mg/ml) diluted 10x with 0.9% NaCl
[8] = concentrated Cpd B solution diluted 10x with 5% Dextrose + 0.9% NaCl
[9] = concentrated Cpd B solution diluted 10x with 5% Dextrose
[10] = concentrated Cpd B solution diluted 10x with Lactated Ringer's Solution
[11] = low-concentration Cpd B solution (26.2-52 mg/ml) diluted 10x with 0.9% NaCl
[12] = undiluted concentrated Cpd B solution used for the Solution 1 dilution
[13] = undiluted concentrated solution (at least 155 mg/ml) used for the Solution 1 dilution (for most salts for all four solutions)
[14] = undiluted low-concentration Cpd B solution (26.2-52 mg/ml)
[15] = undiluted low-concentration solution (26.2-52 mg/ml), diluted with Solution 1 only
[16] = Cpd A salt solution diluted 10x with 0.9% NaCl
[17] = Cpd A salt solution diluted 10x with 5% Dextrose
[18] = Cpd A salt solution diluted 10x with 5% Dextrose + 0.9% NaCl
[19] = Cpd A salt solution diluted 10x with Lactated Ringer's Solution

CCn1cc(C(=O)O)c(=O)c2cc(F)c(N3CCNCC3)nc21 [B Methane Sulphonic]
Conc. of CPD B [1]: 211000 µg/mL | pH of Solution ([1]; CPD B solutions): 1.67^c | pH of Solution Cryst. ([2]; CPD B salt, crystalline solid): 3.15 | pH of Solution Lyo. ([2]; CPD B salt, lyophilized solid): 1.8 | solubility ([2]; lyophilized solid, read-out: Conc. of CPD B mg/ml Lyo.): 200 mg/mL (≈ 624 mM) | Solution 2 pH dil [3, 4]: 3.2 | Solution 3 pH dil [3, 5]: 2.8 | Solution 4 pH dil [3, 6]: 4.2 | Solution 1 pH dil [3, 7]: 2.3 | Solution 1 ppt 4 hr [3, 7]: yes | Solution 1 ppt 24 hr [3, 7]: yes | Solution 3 ppt 4 hr [3, 8]: yes | Solution 3 ppt 24 hr [3, 8]: yes | Solution 2 ppt 4 hr [3, 9]: hazy | Solution 2 ppt 24 hr [3, 9]: hazy | Solution 4 ppt 4 hr [3, 10]: yes | Solution 4 ppt 24 hr [3, 10]: yes | Solution 1 pH dil [3, 11]: 4.47 | Solution 1 ppt 24 hr [3, 11]: no | pH of Solut. [3, 12]: 1.38 | Concen. of Cpd B [3, 13]: 178000 µg/mL | pH of Solut. [3, 14]: 5.07 | Concen. of Cpd B [3, 15]: 26200 µg/mL

CCn1cc(C(=O)O)c(=O)c2cc(F)c(N3CCNCC3)nc21 [B D-Gluconic]
pH of Solution Cryst. ([2]; CPD B salt, crystalline solid): 4.78 | pH of Solution Lyo. ([2]; CPD B salt, lyophilized solid): 4.8 | Solution 2 pH dil [3, 4]: 4.5 | Solution 3 pH dil [3, 5]: 4.8 | Solution 4 pH dil [3, 6]: 4.6 | Solution 1 pH dil [3, 7]: 4.6 | Solution 1 ppt 4 hr [3, 7]: no | Solution 1 ppt 24 hr [3, 7]: yes | Solution 3 ppt 4 hr [3, 8]: no | Solution 3 ppt 24 hr [3, 8]: yes | Solution 2 ppt 24 hr [3, 9]: no | Solution 4 ppt 24 hr [3, 10]: no | pH of Solut. [3, 12]: 4.6 | Concen. of Cpd B [3, 13]: 168000 µg/mL

CCn1cc(C(=O)O)c(=O)c2cc(F)c(N3CCNCC3)cc21 [A D-Galacturonic]
pH of Solution Cryst. ([2]; CPD A salt, crystalline solid): 4.9 | pH of Solution Lyo. ([2]; CPD A salt, lyophilized solid): 4.0 | solubility ([2]; crystalline solid, read-out: Conc. of CPD A mg/ml Cryst.): 183 mg/mL (≈ 573 mM) | Conc. of CPD A mg/ml Lyo. ([2]; lyophilized solid): 256 mg/mL | Solution 1 pH dil [3, 16]: 5.36 | Solution 1 ppt 24 hr [3, 16]: no | Solution 2 pH dil [3, 17]: 5.18 | Solution 3 pH dil [3, 18]: 5.20 | Solution 3 ppt 24 hr [3, 18]: no | Solution 2 ppt 24 hr [3, 17]: slight | Solution 4 pH dil [3, 19]: 5.36 | Solution 4 ppt 24 hr [3, 19]: no | pH of Solut. ([3]; undiluted Cpd A solution): 5.44 | Concen. of Cpd A [3]: 166000 µg/mL

CCn1cc(C(=O)O)c(=O)c2cc(F)c(N3CCNCC3)cc21 [A Acetic]
Conc. of CPD A [1]: 235000 µg/mL | pH of Solution ([1]; CPD A solutions): 5.3 | Solution 1 pH dil [3, 16]: 5.4 | Solution 1 ppt 24 hr [3, 16]: no | Solution 2 pH dil [3, 17]: 5.0 | Solution 3 pH dil [3, 18]: 5.3 | Solution 3 ppt 24 hr [3, 18]: no | Solution 2 ppt 24 hr [3, 17]: no | Solution 4 pH dil [3, 19]: 5.3 | Solution 4 ppt 24 hr [3, 19]: no | pH of Solut. ([3]; undiluted Cpd A solution): 5.3 | Concen. of Cpd A [3]: 235000 µg/mL

CCn1cc(C(=O)O)c(=O)c2cc(F)c(N3CCNCC3)cc21 [A D-Gluconic]
pH of Solution Cryst. ([2]; CPD A salt, crystalline solid): 4.83 | pH of Solution Lyo. ([2]; CPD A salt, lyophilized solid): 5.1 | Conc. of CPD A mg/ml Lyo. ([2]; lyophilized solid): 255 mg/mL | Solution 1 pH dil [3, 16]: 4.4 | Solution 1 ppt 24 hr [3, 16]: no | Solution 2 pH dil [3, 17]: 4.3 | Solution 3 pH dil [3, 18]: 4.4 | Solution 3 ppt 24 hr [3, 18]: no | Solution 2 ppt 24 hr [3, 17]: no | Solution 4 pH dil [3, 19]: 4.7 | Solution 4 ppt 24 hr [3, 19]: no | pH of Solut. ([3]; undiluted Cpd A solution): 4.30 | Concen. of Cpd A [3]: 182000 µg/mL

CCn1cc(C(=O)O)c(=O)c2cc(F)c(N3CCNCC3)cc21 [A Isethionic]
Conc. of CPD A [1]: 175000 µg/mL | pH of Solution ([1]; CPD A solutions): 1.35 | Solution 1 pH dil [3, 16]: 2.18 | Solution 1 ppt 24 hr [3, 16]: no | Solution 2 pH dil [3, 17]: 2.27 | Solution 3 pH dil [3, 18]: 2.08 | Solution 3 ppt 24 hr [3, 18]: no | Solution 2 ppt 24 hr [3, 17]: no | Solution 4 pH dil [3, 19]: 3.70 | Solution 4 ppt 24 hr [3, 19]: no | pH of Solut. ([3]; undiluted Cpd A solution): 1.35 | Concen. of Cpd A [3]: 175000 µg/mL

CCn1cc(C(=O)O)c(=O)c2cc(F)c(N3CCNCC3)nc21 [B L-Cysteic]
Conc. of CPD B [1]: 221000 µg/mL | pH of Solution ([1]; CPD B solutions): 2.78 | Solution 2 pH dil [3, 4]: 2.9 | Solution 3 pH dil [3, 5]: 2.8 | Solution 4 pH dil [3, 6]: 3.9 | Solution 1 pH dil [3, 7]: 2.8 | Solution 1 ppt 4 hr [3, 7]: yes | Solution 1 ppt 24 hr [3, 7]: yes | Solution 3 ppt 4 hr [3, 8]: yes | Solution 3 ppt 24 hr [3, 8]: yes | Solution 2 ppt 4 hr [3, 9]: hazy | Solution 2 ppt 24 hr [3, 9]: hazy | Solution 4 ppt 4 hr [3, 10]: yes | Solution 4 ppt 24 hr [3, 10]: yes | Solution 1 pH dil [3, 11]: 3.29 | Solution 1 ppt 24 hr [3, 11]: no | pH of Solut. [3, 12]: 2.78 | Concen. of Cpd B [3, 13]: 221000 µg/mL | pH of Solut. [3, 14]: 2.96 | Concen. of Cpd B [3, 15]: 52000 µg/mL

CCn1cc(C(=O)O)c(=O)c2cc(F)c(N3CCNCC3)cc21 [A Methane Sulphonic]
Conc. of CPD A [1]: 175000 µg/mL | pH of Solution ([1]; CPD A solutions): 1.33 | Solution 1 pH dil [3, 16]: 5.4 | Solution 1 ppt 24 hr [3, 16]: no | Solution 2 pH dil [3, 17]: 2.7 | Solution 3 pH dil [3, 18]: 2.5 | Solution 3 ppt 24 hr [3, 18]: no | Solution 2 ppt 24 hr [3, 17]: no | Solution 4 pH dil [3, 19]: 4.5 | Solution 4 ppt 24 hr [3, 19]: no | pH of Solut. ([3]; undiluted Cpd A solution): 1.5 | Concen. of Cpd A [3]: 173000 µg/mL

CCn1cc(C(=O)O)c(=O)c2cc(F)c(N3CCNCC3)cc21 [A L-Cysteic]
Conc. of CPD A [1]: 166000 µg/mL | pH of Solution ([1]; CPD A solutions): 2.92 | Solution 1 pH dil [3, 16]: 3.17 | Solution 1 ppt 24 hr [3, 16]: no | Solution 2 pH dil [3, 17]: 2.82 | Solution 3 pH dil [3, 18]: 2.68 | Solution 3 ppt 24 hr [3, 18]: no | Solution 2 ppt 24 hr [3, 17]: no | Solution 4 pH dil [3, 19]: 3.70 | Solution 4 ppt 24 hr [3, 19]: slight | pH of Solut. ([3]; undiluted Cpd A solution): 2.92 | Concen. of Cpd A [3]: 166000 µg/mL

CCn1cc(C(=O)O)c(=O)c2cc(F)c(N3CCNCC3)nc21 [B Hydrochloric]
Conc. of CPD B [1]: 7000 µg/mL | pH of Solution ([1]; CPD B solutions): 1.83^c | pH of Solution Cryst. ([2]; CPD B salt, crystalline solid): 3
